From patent US20100069346A1, “New Azetidine Derivatives as Neurokinin Receptor Antagonists for the Treatment of Gastrointestinal Diseases” (priority 2005, published 2010)

Assays:
human NK1 receptor = biological target: T1, human NK1 receptor (Homo sapiens, UniProt P25103); test: FLIPR assay, inhibition of human NK1 receptor activation (intracellular Ca2+); format: cell-based; settings: CHO cells with human NK1 receptor, agonist Substance P, read-out: pKB (NK1) (converted)
T1 construct: expressed in transfected cells; host or cells: CHO cells (AstraZeneca R&D Wilmington), cDNA in pRcCMV
T1 sequence (P25103 whole entry): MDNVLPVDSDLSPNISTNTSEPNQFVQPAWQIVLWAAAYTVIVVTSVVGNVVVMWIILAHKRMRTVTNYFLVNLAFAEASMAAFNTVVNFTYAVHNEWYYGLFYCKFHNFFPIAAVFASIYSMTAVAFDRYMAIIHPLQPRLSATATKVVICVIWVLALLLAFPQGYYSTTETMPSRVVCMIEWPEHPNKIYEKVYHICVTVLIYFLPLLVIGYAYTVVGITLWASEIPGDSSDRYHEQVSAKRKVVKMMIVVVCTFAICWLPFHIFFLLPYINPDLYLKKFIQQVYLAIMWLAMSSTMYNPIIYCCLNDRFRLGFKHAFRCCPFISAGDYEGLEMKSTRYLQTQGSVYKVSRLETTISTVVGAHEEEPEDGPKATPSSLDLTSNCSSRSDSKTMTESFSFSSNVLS
Method: (§1) Chinese Hamster Ovary (CHO) K1 cells (obtained from ATCC) were stably transfected with the human NK2 receptor (hNK2R cDNA in pRc/CMV, Invitrogen) or the human NK3 receptor (hNK3R in pcDNA 3.1/Hygro (+)/IRES/CD8, Invitrogen vector modified at AstraZeneca EST-Bio UK, Alderley Park). The cells were transfected with the cationic lipid reagent LIPOFECTAMINE™ (Invitrogen) and selection was performed with Geneticin (G418, Invitrogen) at 1 mg/ml for the hNK2R transfected cells and with Hygromycin (Invitrogen) at 500 μg/ml for the hNK3R transfected cells. Single cell clones were collected by aid of Fluorescence Activated Cell Sorter (FACS), tested for functionality in a FLIPR assay (see below), expanded in culture and cryopreserved for future use. CHO cells stably transfected with human NK1 receptors originates from AstraZeneca R&D, Wilmington USA. Human NK1 receptor cDNA (obtained from RNA-PCR from lung tissue) was subcloned into pRcCMV (Invitrogen). Transfection was performed by Calcium Phosphate and selection with 1 mg/ml G418. […]
(§2) The activity of a compound of the invention to inhibit NK1/NK2/NK3 receptor activation measured as NK1/NK2/NK3 receptor mediated increase in intracellular Ca^2+ was assessed by the following procedure: […]

human NK2 receptor = biological target: T2, human NK2 receptor (Homo sapiens, UniProt P21452); test: FLIPR assay, inhibition of human NK2 receptor activation (intracellular Ca2+); format: cell-based; settings: CHO cells with human NK2 receptor, agonist NKA, read-out: pKB (NK2) (converted)
T2 construct: expressed in transfected cells; host or cells: CHO-K1 cells (ATCC), hNK2R cDNA in pRc/CMV
T2 sequence (P21452 1-398): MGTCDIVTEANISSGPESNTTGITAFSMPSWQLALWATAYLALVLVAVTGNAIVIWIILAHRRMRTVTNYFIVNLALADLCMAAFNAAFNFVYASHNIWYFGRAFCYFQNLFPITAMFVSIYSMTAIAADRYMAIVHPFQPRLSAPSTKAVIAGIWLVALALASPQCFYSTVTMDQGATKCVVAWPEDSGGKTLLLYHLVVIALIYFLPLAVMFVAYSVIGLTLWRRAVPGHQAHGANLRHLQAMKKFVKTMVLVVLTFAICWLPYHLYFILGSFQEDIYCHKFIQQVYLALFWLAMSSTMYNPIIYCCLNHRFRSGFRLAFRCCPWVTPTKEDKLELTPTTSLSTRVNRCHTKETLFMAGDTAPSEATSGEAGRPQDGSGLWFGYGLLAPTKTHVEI
Method: as §1, §2

human NK3 receptor = biological target: T3, human NK3 receptor (Homo sapiens, UniProt P29371); test: FLIPR assay, inhibition of human NK3 receptor activation (intracellular Ca2+); format: cell-based; settings: CHO cells with human NK3 receptor, agonist Pro-7-NKB, read-out: pKB (NK3) (converted)
T3 construct: expressed in transfected cells; host or cells: CHO-K1 cells (ATCC), hNK3R in pcDNA 3.1/Hygro (+)/IRES/CD8
T3 sequence (P29371 1-465): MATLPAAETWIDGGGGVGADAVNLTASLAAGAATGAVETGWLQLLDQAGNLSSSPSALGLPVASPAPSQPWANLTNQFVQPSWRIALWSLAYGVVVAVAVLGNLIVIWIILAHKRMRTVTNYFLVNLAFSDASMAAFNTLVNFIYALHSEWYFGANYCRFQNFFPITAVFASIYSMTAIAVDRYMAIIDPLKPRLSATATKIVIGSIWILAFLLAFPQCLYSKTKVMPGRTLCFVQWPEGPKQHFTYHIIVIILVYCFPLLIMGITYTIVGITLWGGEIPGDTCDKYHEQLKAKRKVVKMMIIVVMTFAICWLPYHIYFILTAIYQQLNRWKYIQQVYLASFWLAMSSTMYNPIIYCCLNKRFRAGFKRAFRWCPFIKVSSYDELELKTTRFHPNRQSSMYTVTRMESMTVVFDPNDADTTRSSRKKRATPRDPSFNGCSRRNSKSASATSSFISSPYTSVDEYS
Method: as §1, §2

[1] = biological target: hERG-encoded potassium channel (Homo sapiens, UniProt Q12809); test: Activity against hERG (planar-array-based voltage clamp, Kiss et al.); format: cell-based
hERG-encoded potassium channel, sequence (Q12809 whole entry): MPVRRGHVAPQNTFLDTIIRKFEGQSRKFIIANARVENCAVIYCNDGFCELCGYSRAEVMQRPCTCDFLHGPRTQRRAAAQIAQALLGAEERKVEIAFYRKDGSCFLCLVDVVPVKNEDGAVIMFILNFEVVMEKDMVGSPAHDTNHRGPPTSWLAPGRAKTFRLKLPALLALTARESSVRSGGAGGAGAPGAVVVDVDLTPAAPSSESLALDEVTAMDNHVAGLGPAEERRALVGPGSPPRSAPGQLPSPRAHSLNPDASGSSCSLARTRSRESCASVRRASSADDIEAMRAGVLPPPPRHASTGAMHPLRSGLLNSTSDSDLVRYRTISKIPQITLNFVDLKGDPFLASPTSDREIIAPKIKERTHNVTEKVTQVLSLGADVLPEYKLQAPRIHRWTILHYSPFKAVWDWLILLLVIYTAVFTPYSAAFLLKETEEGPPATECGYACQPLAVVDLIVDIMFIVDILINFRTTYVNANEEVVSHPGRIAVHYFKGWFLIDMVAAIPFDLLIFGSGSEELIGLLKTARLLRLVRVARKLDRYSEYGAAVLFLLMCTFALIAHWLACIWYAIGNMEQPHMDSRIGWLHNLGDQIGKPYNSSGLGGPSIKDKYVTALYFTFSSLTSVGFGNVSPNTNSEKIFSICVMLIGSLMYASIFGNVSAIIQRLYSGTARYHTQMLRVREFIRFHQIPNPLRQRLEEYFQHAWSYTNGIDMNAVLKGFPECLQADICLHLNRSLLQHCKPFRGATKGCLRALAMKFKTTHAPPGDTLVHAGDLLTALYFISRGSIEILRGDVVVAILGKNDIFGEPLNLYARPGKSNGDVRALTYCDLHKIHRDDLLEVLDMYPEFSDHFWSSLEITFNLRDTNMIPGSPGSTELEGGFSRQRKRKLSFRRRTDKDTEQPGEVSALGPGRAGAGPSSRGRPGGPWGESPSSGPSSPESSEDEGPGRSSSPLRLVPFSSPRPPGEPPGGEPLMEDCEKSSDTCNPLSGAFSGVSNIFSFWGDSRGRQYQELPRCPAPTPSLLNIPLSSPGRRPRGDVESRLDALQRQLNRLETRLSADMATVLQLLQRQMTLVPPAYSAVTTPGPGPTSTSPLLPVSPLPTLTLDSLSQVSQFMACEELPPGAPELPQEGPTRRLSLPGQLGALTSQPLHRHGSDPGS
Excerpt: The activity of compounds according to formula I against the hERG-encoded potassium channel can be determined according to Kiss L, et al. Assay Drug Dev Technol. 1 (2003), 127-35: “High throughput ion-channel pharmacology: planar-array-based voltage clamp”.

CYP3A4 = CYP3A4 (Homo sapiens, UniProt P08684); test: CYP3A4 inhibition assay (Bapiro et al.); format: in vitro ADME
CYP3A4, sequence (P08684 whole entry): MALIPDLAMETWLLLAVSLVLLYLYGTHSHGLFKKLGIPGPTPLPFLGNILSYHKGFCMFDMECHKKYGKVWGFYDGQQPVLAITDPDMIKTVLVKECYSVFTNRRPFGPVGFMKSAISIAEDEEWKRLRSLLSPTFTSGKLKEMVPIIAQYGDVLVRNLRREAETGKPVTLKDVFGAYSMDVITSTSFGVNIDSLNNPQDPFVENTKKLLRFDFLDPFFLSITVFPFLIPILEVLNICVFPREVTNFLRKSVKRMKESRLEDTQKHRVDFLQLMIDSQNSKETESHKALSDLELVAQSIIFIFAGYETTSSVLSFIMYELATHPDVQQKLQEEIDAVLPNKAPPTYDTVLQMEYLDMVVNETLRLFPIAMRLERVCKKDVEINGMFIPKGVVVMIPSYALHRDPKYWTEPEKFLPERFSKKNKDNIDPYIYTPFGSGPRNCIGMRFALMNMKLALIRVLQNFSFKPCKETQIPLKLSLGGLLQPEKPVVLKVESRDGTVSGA
Excerpt: It is well known that severe problems such as toxicity may occur if plasma levels of one medication are altered by the co-administration of another drug. […] CYP (cytochrome P450) 3A4 is the most important enzyme in the human liver as a majority of oxidised drugs have been biotransformed by this enzyme. Accordingly, it is undesirable to employ a medication having a significant degree of such liver enzyme inhibiting properties. […] Thus, there is a need for a novel NK receptor antagonist with improved pharmacokinetic properties. The present invention provides compounds with CYP3A4 enzyme inhibiting properties at a low level, as comparatively high IC50 values are obtained in a CYP3A4 inhibiting assay. Said method for determining CYP3A4 inhibition is described in Bapiro et al; Drug Metab. Dispos. 29, 30-35 (2001).
The IC50 values tested according to Bapiro et al; Drug Metab. Dispos. 29, 30-35 (2001) were generally greater than 2 μM.

[2] = Metabolic stability in liver microsomes (HLM); format: in vitro ADME; settings: pH 7.4; human liver microsomes
Method: Stability against human microsomal metabolism in vitro is indicative of stability towards metabolism in vivo.
The metabolic stability of compounds according to formula I can be determined as described below: […]
The rate of biotransformation can be measured as either metabolite(s) formation or the rate of disappearance of the parent compound. The experimental design involves incubation of low concentrations of substrate (usually 1.0 μM) with liver microsomes (usually 0.5 mg/ml) and taking out aliquots at varying time points (usually 0, 5, 10, 15, 20, 30, 40 min.). The test compound is usually dissolved in DMSO. The DMSO concentration in the incubation mixture is usually 0.1% or less since more solvent can drastically reduce the activities of some CYP450s. Incubations are done in 100 mM potassium phosphate buffer, pH 7.4 and at 37° C. Acetonitrile or methanol is used to stop the reaction.

[3] = biological target: T4, Human Neurokinin-2 (NK2) Receptor (Homo sapiens, UniProt P21452); settings: Bioorg. Med. Chem. Lett. (2003), 13, 2211-2215; cited from earlier work
T4 sequence (P21452 1-398): T2 sequence (P21452 1-398)

Compound | Kb (human NK1 receptor) | Kb (human NK2 receptor) | Kb (human NK3 receptor) | IC50 [1] | IC50 (CYP3A4) | microsomal CLint at 1 μM [2] | functional NK2 receptor antagonism [3]
CN(C[C@@H](CCN1CC(N2CCOC[C@H]2CCO)C1)c1ccc(F)cc1)C(=O)c1cc(Br)cc(C(F)(F)F)c1 [Ex 5, 3-Bromo-N-((2S)-2-(4-fluorophenyl)-4-{3-[(3R)-3-(2-hydroxyethyl)morpholin-4-yl]azetidin-1-yl}butyl)-N-methyl-5-(trifluoromethyl)benzamide] | 7.94 nM | 25.1 nM | 20 nM | 18800 nM | 19200 nM | 40.7 µL/min/mg | –
CN(CC(CCN1CC(N2CCOCC2)C1)c1ccc(Cl)c(Cl)c1)C(=O)c1ccccc1 (stereo not shown) [N-[2-(3,4-dichlorophenyl)-4-(3-morpholin-4-ylazetidin-1-yl)butyl]-N-methylbenzamide] | – | – | – | – | – | – | functional NK2 receptor antagonistic properties
